The source of these data is US4115385A, “Antibacterial 3-(5-tetrazolyl) penam compounds” (Pfizer Inc., priority 1977, dated 1978).

Structures are written as SMILES. ≈ marks a conversion by molar mass, not a printed value.

In the first assay the test system is Streptococcus pyogenes. Description: In vitro minimum inhibitory concentration (MIC) vs. Strep. pyogenes. Type of assay: cell-based. Particulars: Streptococcus pyogenes, read-out: MIC vs. Strep. pyogenes. The method in brief: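 Broth inoculated with bacteria and test antibiotic, incubated overnight and read visually; MIC is the lowest concentration preventing turbidity. Test preparations also contain some of the corresponding tetrazole tautomer.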
With `CC1(C)S[C@@H]2[C@H](NC(=O)[C@H](NC(=O)CNC(=N)c3cccc(C(N)=O)c3)c3ccccc3)C(=O)N2[C@H]1c1nnn[nH]1`, the MIC is less than 0.1 µg/mL. As to `CCSCC(=O)N[C@@H](C(=O)N[C@@H]1C(=O)N2[C@@H]1SC(C)(C)[C@@H]2c1nnn[nH]1)c1ccccc1`, the MIC is less than 0.1 µg/mL. In the case of `CC(=O)NC(=O)N[C@@H](C(=O)N[C@@H]1C(=O)N2[C@@H]1SC(C)(C)[C@@H]2c1nn[nH]n1)c1ccccc1` [2-(3-acetylureido)-2-phenylacetyl], the MIC is less than 0.1 µg/mL. On to `CC1(C)S[C@@H]2[C@H](NC(=O)C(C(=O)Oc3ccc4c(c3)CCC4)c3ccccc3)C(=O)N2[C@H]1c1nnn[nH]1` (stereo partly shown) [2-(5-indanyloxycarbonyl)-2-phenylacetyl, 6-(2-[5-Indanyloxycarbonyl]-2-phenylacetamido)-2,2-dimethyl-3-(5-tetrazolyl)penam], for which the MIC is less than 0.1 µg/mL.

The assay is the same for the next values; noted with them: Streptococcus pyogenes; Table II; two-fold serial dilution, Brain-Heart Infusion broth, overnight; read-out: MIC vs. Strep. pyogenes.
Regarding `CCOC(=O)CC(=O)N[C@@H]1C(=O)N2[C@@H]1SC(C)(C)[C@@H]2c1nnn[nH]1` [2-(ethoxycarbonyl)acetyl], the MIC was determined as 0.39 µg/mL (≈ 1.1 µM). For `CC1(C)S[C@@H]2[C@H](NC(=O)[C@H](NC(=O)COc3ccccc3)c3ccc(O)cc3)C(=O)N2[C@H]1c1nnn[nH]1` [6-(D-2-[2-Phenoxyacetamido]-2-[4-hydroxyphenyl]acetamido)-2,2-dimethyl-3-(5-tetrazol-5-yl)penam], the minimal inhibitory concentration (MIC) came out at 0.2 µg/mL (≈ 0.382 µM). As to `Cc1ccc(S(=O)(=O)NC(=O)N[C@@H]2C(=O)N3[C@@H]2SC(C)(C)[C@@H]3c2nn[nH]n2)cc1` [N-(p-toluenesulfonyl)carbomoyl], the MIC amounted to 1.56 µg/mL (≈ 3.57 µM).

For the molecule `CC1(C)S[C@@H]2[C@H](NC(=O)[C@H](NC(=O)Cc3ccc(Br)cc3)c3ccccc3)C(=O)N2[C@H]1c1nnn[nH]1`, the minimal inhibitory concentration (MIC) is 0.2 µg/mL (≈ 0.351 µM). Same read-out and setting: for `CC1(C)S[C@@H]2[C@H](NC(=O)Cc3ccccc3CC(=O)O)C(=O)N2[C@H]1c1nnn[nH]1` [2-(2-[carboxymethyl]phenyl)acetyl, 6-(2-[2-(Carboxymethyl)phenyl]acetamido)-2,2-dimethyl-3-(5-tetrazolyl)penam] the value was 0.2 µg/mL (≈ 0.48 µM).

Staying with this assay, now noted: Streptococcus pyogenes; Table IV; read-out: MIC vs. Strep. pyogenes.
Take `CC1(C)S[C@@H]2[C@H](N=CN3CCCCCC3)C(=O)N2[C@H]1c1nnn[nH]1` [6-([Hexahydro-1-azepinyl]methyleneamino)-2,2-dimethyl-3-(5-tetrazolyl)penam]: the minimal inhibitory concentration (MIC) was determined as 50 µg/mL (≈ 143 µM). Regarding `CN(C)C=N[C@@H]1C(=O)N2[C@@H]1SC(C)(C)[C@@H]2c1nnn[nH]1` [6-([Dimethylamino]methyleneamino)-2,2-dimethyl-3-(5-tetrazolyl)penam], the minimum inhibitory concentration (MIC) was found to be 12.5 µg/mL (≈ 42.3 µM).

Another assay concerns Staphylococcus aureus. The assay can be described thus: In vitro minimum inhibitory concentration (MIC) vs. Staph. aureus. In kind it is cell-based. To be noted: Staphylococcus aureus; Table III; two-fold serial dilution, Brain-Heart Infusion broth, overnight; read-out: MIC vs. Staph. aureus. Here is the method:
The antibacterial penam compounds of the instant invention show activity against a wide variety of gram-positive and gram-negative bacteria. […] The broth is inoculated with the bacterial culture, and with the test antibiotic, and then it is incubated overnight. On the next day, the test is read visually. The minimum inhibitory concentration (MIC) is the lowest concentration of antibiotic which prevents turbidity, i.e., which prevents growth of the microorganism. In vitro activities of several of the penam compounds of the invention are presented later in this specification.
In Table II, the minimum inhibitory concentrations (MIC's) of compounds of formula I, wherein R^2 is hydrogen, against a strain of Streptococcus pyogenes, are reported; and in Table III, minimum inhibitory concentrations of compounds of formula I, wherein R^2 is hydrogen, against a strain of Staphylococcus aureus, are presented. Because of the tautomeric nature of such tetrazole derivatives, referred to hereinbefore,each of the preparations tested also contains some of the corresponding compound of formula II, wherein R^3 is hydrogen.
`CC1(C)S[C@@H]2[C@H](NC(=O)[C@H](NC(=O)CC3=NCCN3)c3ccccc3)C(=O)N2[C@H]1c1nnn[nH]1`: the minimum inhibitory concentration (MIC) stood at 3.12 µg/mL (≈ 6.45 µM). In the case of `CC1(C)S[C@@H]2[C@H](NC(=O)[C@H](NC(=O)CNC(=N)c3ccc[nH]3)c3ccccc3)C(=O)N2[C@H]1c1nnn[nH]1`, the MIC stood at 50 µg/mL (≈ 95.7 µM).

In the case of `CC1(C)S[C@@H]2[C@H](NC(=O)[C@H](NS(=O)(=O)Cc3ccccc3)c3ccccc3)C(=O)N2[C@H]1c1nn[nH]n1`, the MIC came out at 0.39 µg/mL (≈ 0.739 µM). Turning to `CCCS(=O)(=O)N[C@@H](C(=O)N[C@@H]1C(=O)N2[C@@H]1SC(C)(C)[C@@H]2c1nn[nH]n1)c1ccccc1` [D-2-(propanesulfonamido)-2-phenylacetyl], the minimum inhibitory concentration (MIC) was 0.78 µg/mL (≈ 1.63 µM). Still for that read-out and setting: for `CC1(C)S[C@@H]2[C@H](NC(=O)[C@H](NS(=O)(=O)c3ccc([N+](=O)[O-])cc3)c3ccccc3)C(=O)N2[C@H]1c1nn[nH]n1` the value was 1.56 µg/mL (≈ 2.79 µM); for `CC1(C)S[C@@H]2[C@H](NC(=O)[C@H](N)Cc3c[nH]c4ccccc34)C(=O)N2[C@H]1c1nnn[nH]1` [D-2-amino-3-(3-indolyl)propionyl], 6.25 µg/mL (≈ 14.7 µM). Turning to `Cc1ccc(S(=O)(=O)NC(=O)N[C@@H](C(=O)N[C@@H]2C(=O)N3[C@@H]2SC(C)(C)[C@@H]3c2nn[nH]n2)c2ccccc2)cc1`, the MIC stood at 6.25 µg/mL (≈ 11 µM).

Still in this assay, the particulars now being: Staphylococcus aureus; Table IV, values marked *; read-out: MIC against Staph. aureus.
`CC1(C)S[C@@H]2[C@H](N3C(=O)[C@@H](c4ccccc4)NC3(C)C)C(=O)N2[C@H]1c1nnn[nH]1` [6-(2,2-Dimethyl-5-oxo-4-phenyl-1-imidazolidinyl)-2,2-dimethyl-3-(5-tetrazolyl)penam]: the MIC amounted to 1.56 µg/mL (≈ 3.77 µM).
